Measured values taken from patent EP0341735A1, “N-acetyl-3-fluoroneuraminic acid as antiviral drug” (priority 1988, dated 1989).

Assays:
[1] = molecular target: sialidase produced by Vibrio colerae (Vibrio cholerae serotype O1, UniProt P0C6E9); assay: Sialidase inhibition, 4-MU-NeuAc fluorescence assay; type: biochemical; conditions: same procedure as Example 1
Procedure: (§1) 100 µ ℓ of a 0.5 mM solution of 4-methylumbelliferyl-N-acetylneuraminic acid (4-MU-NeuAc) (a product of Nakarai Kagaku Co., Ltd) of the following formula: [drawing 15]
(§2) 100 µ ℓ of a 200 mM sodium acetate buffer (pH 4.2) and 100 µ ℓ of N-acetyl-3-fluoroneuraminic acid (compound 1) 4 to 400 µM were added to an enzyme solution ([…]) (10 mU/ml) of sialidase (a product of Nakarai Kagaku Co., Ltd.) product from Arthrobacter ureafaciens in a test tube, and the reaction was conducted in a water bath at 37 °C for 15 min. Then, 3.6 ml of a 200 mM glycine/NaOH buffer (pH 10.4) was added to the reaction mixture in the test tube to terminate the reaction. the concentration of 4-methylumbelliferone formed in the reaction solution was determined from its fluorescence intensity at an excitation wave length of 360 nm and an emission wave length of 440 nm with a fluorescence spectrophotometer (a product of Hitachi, Ltd.). The amount of free sialic acid was determined from this value.
(§3) The sialidase inhibition rate was determined according to the following formula: [formula]
(§4) The same procedure as that of Example 1 was repeated except that sialidases produced by Vibrio colerae and Streptococcus sp. were used, and then the inhibition rate of Compound 1 was determined.

[2] = test system: sialidase produced by Streptococcus sp.; assay: as above; type: biochemical; conditions: same procedure as Example 1
Procedure: as §1, §2, §3, §4

[3] = test system: sialidase produced by Arthrobacter ureaffacients; assay: as above; type: biochemical, Arthrobacter ureafaciens; conditions: for Inhibition rate / NeuAc released: substrate 4-MU-NeuAc, pH 4.2, 37 °C, 15 min
Procedure: as §1, §2, §3

Female ICR mice = assay: Acute toxicity test by intravenous injection; type: in vivo; conditions: for Number of deaths: Intravenous injection, 10 mice per level, observation period 14 days
Procedure: The acute toxicity test of Compound 1 was conducted by an intravenous injection in female mice.
Animals used: Female ICR mice (6 week old) Medicine concentration: 13 to 15 W/V % in distilled water Number of mice for each level: 10 Observation period: 14 days.

sialidase produced by Vibrio colerae, sequence (P0C6E9 25-781): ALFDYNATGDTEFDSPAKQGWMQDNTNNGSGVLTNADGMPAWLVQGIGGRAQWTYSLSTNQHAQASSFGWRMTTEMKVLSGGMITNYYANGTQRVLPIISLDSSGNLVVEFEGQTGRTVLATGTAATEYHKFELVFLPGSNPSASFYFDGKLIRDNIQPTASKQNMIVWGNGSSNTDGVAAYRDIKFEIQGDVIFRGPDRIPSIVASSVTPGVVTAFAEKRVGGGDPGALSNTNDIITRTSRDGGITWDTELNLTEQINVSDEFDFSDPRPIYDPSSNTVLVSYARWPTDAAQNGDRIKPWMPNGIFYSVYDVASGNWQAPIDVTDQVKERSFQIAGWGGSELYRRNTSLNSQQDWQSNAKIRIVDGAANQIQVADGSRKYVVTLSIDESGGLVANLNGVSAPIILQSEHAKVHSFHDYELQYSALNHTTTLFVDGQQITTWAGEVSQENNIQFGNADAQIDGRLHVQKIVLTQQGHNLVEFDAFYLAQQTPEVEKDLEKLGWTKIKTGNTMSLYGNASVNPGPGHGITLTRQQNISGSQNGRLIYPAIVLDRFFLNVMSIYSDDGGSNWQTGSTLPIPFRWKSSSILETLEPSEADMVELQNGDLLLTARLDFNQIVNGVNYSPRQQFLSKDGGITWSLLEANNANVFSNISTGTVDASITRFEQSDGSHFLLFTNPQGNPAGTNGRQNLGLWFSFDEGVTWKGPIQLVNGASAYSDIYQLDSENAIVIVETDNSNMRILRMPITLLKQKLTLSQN

Work on CC(=O)N[C@H]1[C@H]([C@H](O)[C@H](O)CO)OC(O)(C(=O)O)C(F)[C@@H]1O (stereo partly drawn) [Compound 1, N-acetyl-3-fluoroneuraminic acid] yielded a NeuAc released ([1]; Compound 1 at 0.001 mM) of 5.9 n mol, an inhibition at 1 µM ([1]; Compound 1 at 0.001 mM, read-out: Inhibition rate) of -0.2% and a NeuAc released ([1]; Compound 1 at 0.01 mM) of 5.3 n mol. For the same molecule, the inhibition at 10 µM ([1]; Compound 1 at 0.01 mM, read-out: Inhibition rate) was 8.4%, the NeuAc released ([1]; Compound 1 at 0.1 mM) was 2.8 n mol and the inhibition at 100 µM ([1]; Compound 1 at 0.1 mM, read-out: Inhibition rate) was 52.7%. It also gave an Inhibition rate ([2]; Compound 1 at 0.001 mM) of 7.4%, a NeuAc released ([2]; Compound 1 at 0.001 mM) of 10.5 n mol and an Inhibition rate ([2]; Compound 1 at 0.01 mM) of 24.6%. For the same molecule, the NeuAc released ([2]; Compound 1 at 0.01 mM) was 8.5 n mol, the Inhibition rate ([2]; Compound 1 at 0.1 mM) was 75.4% and the NeuAc released ([2]; Compound 1 at 0.1 mM) was 2.8 n mol. It also gave an Inhibition rate ([3]; Compound 1 at 0.001 mM) of 14.3%, a NeuAc released ([3]; Compound 1 at 0.001 mM) of 23.0 n mol and an Inhibition rate ([3]; Compound 1 at 0.01 mM) of 48.9%. For the same molecule, the NeuAc released ([3]; Compound 1 at 0.01 mM) was 14.0 n mol, the Inhibition rate ([3]; Compound 1 at 0.1 mM) was 82.0% and the NeuAc released ([3]; Compound 1 at 0.1 mM) was 4.9 n mol. For the same molecule, the “inhibition pattern (Dixon plot)” value ([3]; Fig. 1, two different substrate concentrations) was “competitive with the substrate”, the “activity of sialidase (inhibition, in words)” value ([3]; conclusion from Table 1) was “remarkably inhibits” and the Number of deaths (Female ICR mice; dose 200 mg) was 0. For the same molecule, the Number of deaths (Female ICR mice; dose 400 mg) was 0, the Number of deaths (Female ICR mice; dose 600 mg) was 0 and the “toxicity (in words)” value (Female ICR mice; conclusion from Table 4) was “quite low”.
